Results: US10399932B2, “Inhibitors of indoleamine-2,3-dioxygenase for the treatment of cancer” (BRISTOL-MYERS SQUIBB COMPANY, priority 2015, dated 2019)

Target: human IDO1 (Homo sapiens, UniProt P14902)
Assay: Assessment of human IDO-1 inhibitory activity in HEK cells (human IDO1/HEK293 cells, Ehrlich reagent, absorbance at 490 nm)
Format: cell-based
Set-up: expressed in transfected cells
Conditions: In Vitro Potency in the HEK Human IDO-1 Cellular Assay
Protocol: Exemplary compounds were tested for inhibition of IDO activity.
HEK293 cells were transfected with a pCDNA-based mammalian expression vector harboring human IDO1 cDNA (NM 002164.2) by electroporation. They were cultured in medium (DMEM with 10% FBS) containing 1 mg/ml G418 for two weeks. Clones of HEK293 cells that stably expressed human IDO1 protein were selected and expanded for IDO inhibition assay.
The human IDO1/HEK293 cells were seeded at 10,000 cells per 50 μL per well with RPMI/phenol red free media contains 10% FBS in a 384-well black wall clear bottom tissue culture plate (Matrix Technologies LLC) 100 nL of certain concentration of compound was then added to each well using ECHO liquid handling systems. The cells were incubated for 20 hours in 37° C. incubator with 5% CO2.
The compound treatments were stopped by adding trichloroacetic acid (Sigma-Aldrich) to a final concentration at 0.2%. The cell plate was further incubated at 50° C. for 30 minute. The equal volume supernatant (20 μL) and 0.2% (w/v) Ehrlich reagent (4-dimethylaminobenzaldehyde, Sigma-Aldrich) in glacial acetic acid were mixed in a new clear bottom 384-well plate. This plate was then incubated at room temperature for 30 minute. The absorbance at 490 nm was measured on Envision plate reader.
Compound IC50 values were calculated using the counts of 500 nM of a reference standard treatment as one hundred percent inhibition, and counts of no compound but DMSO treatment as zero percent inhibition.

Sequence of human IDO1 (P14902 whole entry): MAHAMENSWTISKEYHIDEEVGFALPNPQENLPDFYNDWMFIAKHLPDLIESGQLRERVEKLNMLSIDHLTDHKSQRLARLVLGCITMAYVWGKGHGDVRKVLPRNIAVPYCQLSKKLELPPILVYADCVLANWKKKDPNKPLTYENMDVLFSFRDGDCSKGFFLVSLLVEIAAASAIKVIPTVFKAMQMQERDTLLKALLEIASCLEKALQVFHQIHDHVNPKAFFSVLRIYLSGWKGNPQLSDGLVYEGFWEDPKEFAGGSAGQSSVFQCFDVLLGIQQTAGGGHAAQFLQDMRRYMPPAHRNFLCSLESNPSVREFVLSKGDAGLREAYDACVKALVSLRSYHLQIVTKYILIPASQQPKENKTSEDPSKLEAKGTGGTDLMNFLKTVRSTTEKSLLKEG

Row | Compound | IC50 [nM]
1 | CC(C)C(CC(=O)O)c1ccc(N(C)C(C)(C)C)c(Nc2nc3ccccc3o2)c1 (single isomer, unassigned) [Example 1008-2] | > 50
2 | CCOc1cc(Nc2cc(C(CC)CC(=O)O)ccc2N(CC(C)C)C2CCCCC2)ccc1Cl (single isomer, unassigned) [Example 646, 3-(3-((4-chloro-3-ethoxyphenyl)amino)-4-(cyclohexyl(isobutyl)amino)phenyl)pentanoic acid] | < 5
3 | CCOc1cc(Nc2cc(C(CC)CC(=O)O)ccc2N(CC(C)C)C2CCCCC2)ccc1Cl (single isomer, unassigned) [Example 653, 3-(3-((4-chloro-3-ethoxyphenyl)amino)-4-(cyclohexyl(isobutyl)amino)phenyl)pentanoic acid] | < 50
4 | Cc1ccc(NC(=O)Nc2cc(C(C)CC(=O)O)ccc2N(CC(C)C)C2CCOCC2)cc1 (single isomer, unassigned) [Example 965, 3-(4-(isobutyl(tetrahydro-2H-pyran-4-yl)amino)-3-(3-(p-tolyl)ureido)phenyl)butanoic acid] | < 50
5 | CCc1ccc(Nc2cc(C(CC)CC(=O)O)ccc2N2CCC[C@H]2C(C)(C)O)cc1 (single isomer, unassigned) [Example 835] | > 50
6 | CCC(CC(=O)O)c1cc(NC(=O)Nc2cnc(OC)nc2)c(N(CC(C)C)CC(C)C)cc1F (single isomer, unassigned) [Example 1142, 3-(4-(Diisobutylamino)-2-fluoro-5-(3-(2-methoxypyrimidin-5-yl)ureido)phenyl)pentanoic acid] | < 5
7 | CCC(CC(=O)O)c1ccc(N(CC2CC2)C2CCOCC2)c(Nc2ccc(Cl)cc2)c1 (single isomer, unassigned) [Example 708, 3-(3-((4-chlorophenyl)amino)-4-((cyclopropylmethyl)(tetrahydro-2H-pyran-4-yl)amino)phenyl)pentanoic acid] | < 5
8 | CCOc1ccc(NC(=O)Nc2cc(C(CC)CC(=O)O)c(F)cc2N(CC(C)C)CC(C)C)cc1 (single isomer, unassigned) [Example 1133, 3-(4-(Diisobutylamino)-5-(3-(4-ethoxyphenyl)ureido)-2-fluorophenyl)pentanoic acid] | < 5
9 | CC(CC(=O)O)c1ccc(N2CCC[C@H]2C(C)(C)O)c(Nc2ccc(C#N)cc2)c1 (single isomer, unassigned) [Example 802] | > 50
10 | CCC(CC(=O)O)c1ccc(N(CC(C)C)C2CCCCC2)c(NC(=O)Cc2ccc(C)cc2)c1 (racemic) [Example 1084] | < 5
11 | CCC(CC(=O)O)c1ccc(N2CCOC[C@H]2C(C)C)c(NC(=O)Nc2ccc(Cl)cc2F)c1 (single isomer, unassigned) [Example 908] | < 50
12 | COCC(CC(=O)O)c1cc(F)c(N(CC(C)C)CC(C)C)c(NC(=O)Nc2cc(C)on2)c1 (single isomer, unassigned) [Example 1188, 3-(4-(Diisobutylamino)-3-fluoro-5-(3-(5-methylisoxazol-3-yl)ureido)phenyl)-4-methoxybutanoic acid] | < 50
13 | COCC(CC(=O)O)c1ccc(N(CC(C)C)C2CCC(OC)CC2)c(NC(=O)Nc2ccc(C)cc2)c1 (racemic) [Example 1147] | < 50
14 | CCC(CC(=O)O)c1ccc(N2CC3CC2CN3Cc2ccccc2)c(NC(=O)Nc2ccc(C)cc2)c1 (single isomer, unassigned) [667 E1] | > 50
15 | CCC(CC(=O)O)c1ccc(N(CC2CC2)C2CCOCC2)c(Nc2ccc(C#N)cc2)c1 (single isomer, unassigned) [Example 712, 3-(3-((4-cyanophenyl)amino)-4-((cyclopropylmethyl)(tetrahydro-2H-pyran-4-yl)amino)phenyl)pentanoic acid] | < 5
16 | CCC(CC(=O)O)c1ccc(N(CC(C)C)C2CCCCC2)c(NC(=O)Cc2ccc(C#N)cc2)c1 (racemic) [Example 1086] | < 5
17 | CCC(CC(=O)O)c1ccc(N2CCC[C@H]2C(C)(C)O)c(Nc2cnc(OC)nc2)c1 (single isomer, unassigned) [Example 841] | > 50
18 | COCC(CC(=O)O)c1ccc(N(CC(C)C)C2CCOCC2)c(NC(=O)Nc2cc(C)on2)c1 (single isomer, unassigned) [Example 1220, 3-(4-(Isobutyl(tetrahydro-2H-pyran-4-yl)amino)-3-(3-(5-methylisoxazol-3-yl)ureido)phenyl)-4-methoxybutanoic acid] | > 50
19 | COCC(CC(=O)O)c1cc(F)c(N(CC(C)C)CC(C)C)c(NC(=O)Nc2ccc(Cl)cc2F)c1 (single isomer, unassigned) [Example 1195, 3-(3-(3-(4-Chloro-2-fluorophenyl)ureido)-4-(diisobutylamino)-5-fluorophenyl)-4-methoxybutanoic acid] | < 5

Row | Compound | IC50 [nM]
20 | CCOc1ncc(Nc2cc(C(CC)CC(=O)O)ccc2N(CC(C)C)C2CCCCC2)cn1 (single isomer, unassigned) [Example 303, 3-(4-(cyclohexyl(isobutyl)amino)-3-((2-ethoxypyrimidin-5-yl)amino)phenyl)pentanoic acid] | < 5
21 | CCC(CC(=O)O)c1ccc(N2CCC[C@@H]2COC)c(NC(=O)Cc2ccc(C)cc2)c1 (single isomer, unassigned) [Example 1145] | > 50
22 | Cc1ccc(NC(=O)Nc2cc(C(CC(=O)O)C3CC3)ccc2N(CC(C)C)C2CCOCC2)cc1 (single isomer, unassigned) [1202 E2] | < 5
23 | Cc1ccc(NC(=O)Nc2cc(C(CC(=O)O)C3CC3)ccc2N(CC(C)C)C2CCOCC2)cc1 (single isomer, unassigned) [1202 E1] | < 5
24 | CC(CC(=O)O)c1ccc(N2C[C@@H](C)O[C@@H](C)C2)c(Nc2ccc(C#N)cc2)c1 (single isomer, unassigned) [Example 743] | > 50
25 | CCC(CC(=O)O)c1ccc(N2C[C@@H](C)O[C@@H](C)C2)c(Nc2ccc3nc(C)sc3c2)c1 (single isomer, unassigned) [Example 757] | > 50
26 | CCOc1ccc(NC(=O)Nc2cc(C(CC(=O)O)C3CC3)ccc2N(CC(C)C)C2CCOCC2)cc1 (single isomer, unassigned) [Example 1205 Enantiomer 2, 3-Cyclopropyl-3-(3-(3-(4-ethoxyphenyl)ureido)-4-(isobutyl(tetrahydro-2H-pyran-4-yl)amino)phenyl)propanoic acid] | < 50
27 | CCC(CC(=O)O)c1ccc(N(CC(C)C)C2CCCCC2)c(Nc2ccc3c(c2)OCCO3)c1 (single isomer, unassigned) [Example 317, 3-(4-(cyclohexyl(isobutyl)amino)-3-((2,3-dihydrobenzo[b][1,4]dioxin-6-yl)amino)phenyl)pentanoic acid] | < 50
28 | CCC(CC(=O)O)c1cc(F)c(N(CC(C)C)CC(C)C)c(Nc2ccc(OCC3CC3)cc2)c1 (single isomer, unassigned) [Example 122, 3-(3-((4-(cyclopropylmethoxy)phenyl)amino)-4-(diisobutylamino)-5-fluorophenyl)pentanoic acid] | < 50
29 | CCC(CC(=O)O)c1ccc(N(CC2CC2)C2CCOCC2)c(Nc2cnc(OC)nc2)c1 (single isomer, unassigned) [Example 709, 3-(4-((cyclopropylmethyl)(tetrahydro-2H-pyran-4-yl)amino)-3-((2-methoxypyrimidin-5-yl)amino)phenyl)pentanoic acid] | < 5
30 | CCOc1ncc(Nc2cc(C(CC)CC(=O)O)ccc2N(CC2CC2)C2CCOCC2)cn1 (single isomer, unassigned) [Example 711, 3-(4-((cyclopropylmethyl)(tetrahydro-2H-pyran-4-yl)amino)-3-((2-ethoxypyrimidin-5-yl)amino)phenyl)pentanoic acid] | < 5
31 | COCC(CC(=O)OC)c1ccc(N(CC(C)C)C2CCC(OC)CC2)c(NC(=O)Nc2ccc(Cl)cc2F)c1 (racemic) [Example 1148] | > 50
32 | CCC(CC(=O)O)c1cc(F)c(N(CC(C)C)CC(C)C)c(Nc2ccc(C#N)cc2)c1 (single isomer, unassigned) [Example 123, 3-(3-((4-cyanophenyl)amino)-4-(diisobutylamino)-5-fluorophenyl)pentanoic acid] | < 5
33 | CCC(CC(=O)O)c1cc(NC(=O)Nc2ccc(C)cc2)c(N(CC(C)C)CC(C)C)cc1F (single isomer, unassigned) [Example 1130, 3-(4-(Diisobutylamino)-2-fluoro-5-(3-(p-tolyl)ureido)phenyl)pentanoic acid] | < 5
34 | COCC(CC(=O)O)c1ccc(N(CC(C)C)CC(C)C)c(NC(=O)Nc2ccc(C)cc2)c1 (single isomer, unassigned) [Example 993-2] | < 50
35 | CCC(CC(=O)O)c1cc(F)c(N(CC(C)C)CC(C)C)c(NC(=O)Nc2ccc(Cl)cc2F)c1 (single isomer, unassigned) [Example 981-2] | < 5
36 | COCC(CC(=O)O)c1ccc(N(CC(C)C)C2CCCCC2)c(NC(=O)Nc2ccccc2F)c1 (single isomer, unassigned) [1125 E2] | < 5
37 | COCC(CC(=O)O)c1ccc(N(CC(C)C)CC(C)C)c(NC(=O)Nc2cc(C)on2)c1 (single isomer, unassigned) [Example 999-2] | < 50
